Experimental data reported in patent publication US20190134115A1, “Activated Lactobacillus Reuteri Strains for Selective Pathogen Inhibition in a Human Microbial Community” (BioGaia AB, priority 2016, published 2019).
In brackets after ≈: the same amount, converted by molar mass. Where two headings read alike, the source gives them in different places.

Experiments:
L. reuteri 6475 = assay: Antibiotic susceptibility testing, broth microdilution MIC; assay type: cell-based; conditions: read-out: Minimum inhibitory concentration
Method: (§1) Antibiotic Susceptibility Testing. Susceptibility of Lactobacillus spp. to antibiotics was determined using standard broth microdilution procedures (24). […] Plates were incubated anaerobically at 37° C. for 24 h. Optical density measurements (600 nm) were recorded using a Synergy™ H1 Hybrid Multi-Mode Microplate Reader (BioTek Instruments, Inc, Winooski, Vt.). Results were compared to a growth control (lactobacilli only), and the minimum inhibitory concentration (MIC) endpoint was the concentration of antibiotic where ≥90% reduction in growth was observed. Significance was determined using student's t test with equal variance.

L. reuteri 17938 = assay: as above; assay type: cell-based; conditions: read-out: Minimum inhibitory concentration
Method: as §1

L. gasseri LG-3 = assay: as above; assay type: cell-based; conditions: for MIC: Lactobacillus gasseri, read-out: Minimum inhibitory concentration
Method: as §1

[1] = system: C. difficile-associated diarrheal isolates; conditions: cited from earlier work
L. casei LC-39 = assay: Antibiotic susceptibility testing, broth microdilution MIC; assay type: cell-based; conditions: for MIC: Lacticaseibacillus casei; for MIC / Minimum inhibitory concentration: MRS, anaerobic, 24 h, ≥90% reduction in growth
Method: as §1, with “Results were compared to a growth control (lactobacilli only), and the minimum inhibitory concentration (MIC) endpoint was the concentration of antibiotic where ≥90% reduction in growth was observed.” left out

L. rhamnosus LR-34 = assay: as above; assay type: cell-based; conditions: for MIC: Lacticaseibacillus rhamnosus; for MIC / Minimum inhibitory concentration: MRS, anaerobic, 24 h, ≥90% reduction in growth
Method: as §1, with “Results were compared to a growth control (lactobacilli only), and the minimum inhibitory concentration (MIC) endpoint was the concentration of antibiotic where ≥90% reduction in growth was observed.” left out

C. difficile R20291 = conditions: C. difficile R20291, CDI patient stool; cited from earlier work
C. difficile CD2015 = assay: C. difficile invasion of antibiotic-treated human fecal mini-bioreactor arrays (MBRA), qPCR; assay type: cell-based; conditions: clindamycin-treated MBRA, increase not statistically significant
Method: Mini-bioreactor array (MBRA) preparation, operation and sample collection. Effects of reuterin on C. difficile growth in a human fecal microbial community were tested in MBRAs. Replicate MBRAs (twelve independent 15-mL reactors) and bioreactor medium (BRM2) were prepared as previously described (26). Reactors were inoculated with an anaerobic preparation of a 25% fecal slurry from an anonymous healthy donor (5% w/v final concentration) and were operated in an anaerobic chamber with 5% H2, 5% CO2, 90% N2 atmosphere. After 16 h of outgrowth in batch culture mode, continuous-flow cultivation was initiated at a flow rate of 0.94 ml/h (16 h retention time). After 36 h of flow, reactor communities were treated twice daily with clindamycin (500 mg/L final concentration) for 4.5 days. Reactors were transitioned to fresh medium on day 4 of clindamycin treatment, with 6 reactors receiving standard BRM2 medium and 6 reactors receiving BRM2 supplemented with glycerol (10% v/v final concentration). […]
Samples (1 ml) were collected from each MBRA as described (27) prior to the initiation of continuous flow and then daily through the duration of the experiment. […] Microbial community and metabolite analysis, and quantification of C. difficile levels by quantitative PCR (qPCR) were performed as described below. […]
Quantification of C. difficile by qPCR. […]

[2] = Limosilactobacillus reuteri, L. reuteri 17938, MRS, anaerobic, 24 h, ≥90% reduction in growth
[3] = LG3, L. gasseri LG-3, MRS, anaerobic, 24 h, ≥90% reduction in growth
[4] = LC39, L. casei LC-39, read-out: Minimum inhibitory concentration
[5] = LR34, L. rhamnosus LR-34, read-out: Minimum inhibitory concentration
[6] = Limosilactobacillus reuteri, 6475, 24 h

| MIC (L. reuteri 6475; Limosilactobacillus reuteri, L. reuteri 6475, MRS, anaerobic, 24 h, ≥90% reduction in growth) | MIC relative to the MIC90 for C. difficile (L. casei LC-39; L. casei LC-39, fold greater) | MIC relative to the MIC90 for C. difficile (L. rhamnosus LR-34; L. rhamnosus LR-34, fold greater) | Structure (SMILES) | MIC (L. reuteri 17938; [2]) | MIC (L. gasseri LG-3; [3]) | MIC90 [1] | MIC (L. casei LC-39; [4]) | MIC (L. rhamnosus LR-34; [5]) | Minimum inhibitory concentration (C. difficile R20291) | MIC (L. reuteri 6475; [6]) | Minimum inhibitory concentration (L. gasseri LG-3; L. gasseri LG-3, MRS, anaerobic, 24 h, ≥90% reduction in growth) | Minimum inhibitory concentration (L. casei LC-39; L. casei LC-39) | Minimum inhibitory concentration (L. rhamnosus LR-34; L. rhamnosus LR-34) | C. difficile concentrations, fold greater than controls (C. difficile CD2015) | MIC (L. reuteri 17938; Limosilactobacillus reuteri, 17938, 24 h) | MIC (L. gasseri LG-3; LG3, 24 h) | MIC (L. casei LC-39; LC39, 24 h, read-out: Minimum inhibitory concentration, L. casei LC-39) | MIC (L. rhamnosus LR-34; LR34, 24 h, read-out: Minimum inhibitory concentration, L. rhamnosus LR-34) |
| --- | --- | --- | --- | --- | --- | --- | --- | --- | --- | --- | --- | --- | --- | --- | --- | --- | --- | --- |
| > 32 mg/L | 4 fold | 4 fold | CCc1c(Cl)c(O)c(Cl)c(O)c1C(=O)O[C@H]1[C@H](O)[C@H](OC)[C@H](OC/C2=C\C=C\C[C@H](O)/C(C)=C/[C@H](CC)[C@@H](O[C@@H]3OC(C)(C)[C@@H](OC(=O)C(C)C)[C@H](O)[C@@H]3O)/C(C)=C/C(C)=C/C[C@@H]([C@@H](C)O)OC2=O)O[C@@H]1C [Fidaxomycin, fidaxomicin] | > 32 mg/L | 2 mg/L | 0.5 mg/L (≈ 0.473 µM) | 2 mg/L | 2 mg/L | 0.5 mg/L (≈ 0.473 µM) | – | – | – | – | – | – | – | – | – |
| – | – | – | Cc1ncc([N+](=O)[O-])n1CCO [Metronidazole, metronidazole] | > 256 mg/L | > 256 mg/L | 2 mg/L (≈ 11.7 µM) | > 256 mg/L | > 256 mg/L | 2 mg/L (≈ 11.7 µM) | 128 mg/L | >256 mg/L | >256 mg/L | >256 mg/L | – | – | – | – | – |
| – | – | – | OCC(O)CO [glycerol] | – | – | – | – | – | – | – | – | – | – | ~10 fold | – | – | – | – |
| – | – | – | CN[C@H](CC(C)C)C(=O)N[C@H]1C(=O)N[C@@H](CC(N)=O)C(=O)N[C@H]2C(=O)N[C@H]3C(=O)N[C@H](C(=O)N[C@H](C(=O)O)c4cc(O)cc(O)c4-c4cc3ccc4O)[C@H](O)c3ccc(c(Cl)c3)Oc3cc2cc(c3O[C@@H]2O[C@H](CO)[C@@H](O)[C@H](O)[C@H]2O[C@H]2C[C@](C)(N)[C@H](O)[C@H](C)O2)Oc2ccc(cc2Cl)[C@H]1O [Vancomycin, vancomycin] | – | – | 4 mg/L (≈ 2.76 µM) | – | – | 4 mg/L (≈ 2.76 µM) | 256 mg/L | – | 256 mg/L | 256 mg/L | – | 256 mg/L | 1 mg/L | > 256 mg/L | > 256 mg/L |
